Laboratory results published in US4547513A, “2-Arylbenzothiazoline derivatives and their use in treating angina cordis” (Santen Pharmaceutical Co., Ltd., priority 1983, dated 1985).
pIC50: −log10 of the molar value. Structures can show the parent of a compound that is named as a salt.

Legend:
[1] = test system: platelet aggregation (rabbit platelet rich plasma); test: Platelet antiaggregatory activity in rabbit platelet rich plasma in vitro (Pharmacological test II); type: cell-based; conditions: Oryctolagus cuniculus, rabbit PRP, 1 minute preincubation at 37° C., induced by collagen (3μg/ml) or ADP (3μM), inducer not given, read-out: Antiaggregation activity IC50 (50% inhibition of the control response)
Protocol: Blood was obtained from an anesthetized rabbit using 0.1 volume of 3.8% sodium citrate as anticoagulant. Platelet rich plasma (PRP) was isolated by centrifugation at 650 rpm for 10 minutes at room temperature. After preincubation of PRP (0.25 ml) with various concentrations of the test compounds (14μl) for 1 minute at 37° C., collagen (3μg/ml: final concentration) or ADP (3μM: final concentration) was added to induce aggregation and the aggregation profiles were monitored by RIKADENKI six-channel aggregometer. The control experiment contained saline instead of the test compound.
The antiaggregatory activity was represented by the concentration of the test compounds which elicited 50% inhibition of the control response.

guineapig teania coli = test: Calciumantagonistic activity: inhibition of Ca++-evoked contraction of isolated guineapig teania coli (Pharmacological test I); type: cell-based; conditions: Cavia porcellus, 5 min, Ca++-free-high-K Krebs solution, 32° C., 5 minutes exposure before CaCl2 (3×10^-4M), read-out: Calciumantagonistic activity IC50 (50% inhibition of Ca++-evoked contraction)
Protocol: The action potentials on the smooth muscles of uterus, teania coli and portal vein depend on calcium ion, and therefore these smooth muscle preparations are useful for screening of calciumantagonists. We measured the calciumantagonistic activity of the compounds by the method using guineapig teania coli preparation.
Isolated guineapig teania coli was suspended in a 20 ml organ bath with Krebs solution at 32° C. and bubbled with 5% carbon dioxide in oxygen. After equilibration, the muscle was washed with Ca^++ -free Krebs solution, and when the muscle had relaxed to basal level, it was suspended in Ca^++ -free-high-K Krebs solution.
The muscule was exposed to the test compounds for 5 minutes before addition of CaCl2, and the contraction evoked by CaCl2 (3×10^-4M) was recorded isotonically. The calciumantagonistic activity was represented by the concentration of the test compound which elicited 50% inhibition of Ca^++ -evoked contraction (IC50).

Structure (SMILES) | pIC50 [1] | pIC50 (guineapig teania coli)
COc1ccc(OCCCCN2CCC(C(=O)c3ccc(C)cc3)CC2)c(C2Sc3ccccc3N2C(C)=O)c1 (stereo not shown) [compound 3, 3-Acetyl-2-(5-methoxy-2-[4-[4-(4-methylbenzoyl)-1-piperidyl]butoxy]phenyl]benzothiazoline maleate] | 5.49 | –
COc1ccc(OCCCCN2CCC(C(=O)c3ccc(Cl)cc3)CC2)c(C2Sc3ccccc3N2C(C)=O)c1 (stereo not shown) [compound 4, 3-Acetyl-2-[2-[4-[4-(4-chlorobenzoyl)-1-piperidyl]butoxy]-5-methoxyphenyl]benzothiazoline maleate] | 5.49 | 5.06
COc1ccc(OCCCCN2CCC(C(O)c3ccccc3)CC2)c(C2Sc3ccccc3N2C(C)=O)c1 (stereo not drawn) [compound 5, 3-Acetyl-2-[2-[4-[4-(α-hydroxybenzyl)-1-piperidyl]butoxy]5-methoxyphenyl]benzothiazoline maleate] | – | 5.09
COc1ccc(OCCCCN2CCC(C(=O)c3ccc(F)cc3)CC2)c(C2Sc3ccccc3N2C(C)=O)c1 (stereo not shown) [compound 6, 3Acetyl-2-[2-[4-[4-(4-fluorobenzoyl)-1-piperidyl]butoxy]-5-methoxyphenyl]benzothiazoline maleate] | 6.54 | 5.80
COc1ccc(OCCCCN2CCC(C(=O)Cc3ccccc3)CC2)c(C2Sc3ccccc3N2C(C)=O)c1 (stereo not shown) [compound 7, 3-Acetyl-2-[2-[4-(4-benzylcarbonyl-1piperidyl)butoxy]-5-methoxyphenyl]benzothiazoline maleate] | – | 5.49
